# Test results taken from patent US12171813B2, “Methods of and compositions for reducing gene expression and/or activity” (Christiana Care Gene Editing Institute, Inc., priority 2021, dated 2024).
# Assays:
# EGFR = test: cDNA PCR analysis of exon skipping / full-size transcript in EGFR; assay type: cell-based, Human; details: gRNA on its own; PDMR lung adenocarcinoma cells
# Method: After CRISPR reactions, total RNA was prepared, and cDNA synthesized for PCR amplification of the target region from EGFR. PCR-amplified DNA was then analyzed by electrophoresis through a 1% agarose gel for 75 minutes at 80v. DNA was stained with SYBR Safe. Lanes 1 and 13: NEB 2 Log Ladder; Lane 2: Scrambled gRNA; Lane 3: EGFR 21-22 SureKill gRNA 11 alone; Lane 4: EGFR 21-22 SureKill gRNA 13 alone; Lane 5: EGFR 21-22 SureKill gRNA 16 alone; Lane 6: EGFR 21-22 SureKill gRNA 17 alone; Lane 7: EGFR 21-22 SureKill gRNA 19 alone; Lane 8: EGFR 21-22 SureKill gRNA 22 alone; Lane 9: EGFR 21-22 SureKill gRNA 23 alone; Lane 10: EGFR 21-22 SureKill gRNA 27 alone; Lane 11: EGFR 21-22 SureKill gRNA 28 alone; Lane 12: EGFR 21-22 SureKill gRNA 29 alone. On the left side of the image are markers indicating DNA size in bp.
# After CRISPR reactions, total RNA was prepared, and cDNA synthesized for semi-quantitative PCR amplification of the target region from EGFR. PCR amplification was performed for 25 cycles. PCR-amplified DNA was then analyzed by electrophoresis through a 1% agarose gel for 75 minutes at 80v. DNA was stained with SYBR Safe. […]
# (§1) Transfections were carried out using the Lonza Nuclefector 4d. […] RNPs were complexed at 250:50 pmol for 30 minutes prior to transfection, during which time cells were harvested and counted. […]
# EGFR gene = test: Genomic DNA PCR assessment of large deletions in EGFR gene; assay type: cell-based, Human; details: gRNA alone, not paired
# Method: After CRISPR reactions, genomic DNA was prepared for PCR amplification of the target region from EGFR gene. PCR-amplified DNA was then analyzed by electrophoresis through a 1% agarose gel for 75 minutes at 80v. DNA was stained with SYBR Safe. Lanes 1 and 10: NEB 2 Log Ladder; Lane 2: Scrambled gRNA; Lane 3: L858R gRNA alone; Lane 4: EGFR 21-22 SureKill gRNA 19 alone; Lane 5: EGFR 21-22 SureKill gRNA 27 alone; Lane 6: EGFR 21-22 SureKill gRNA 28+L858R gRNA; Lane 7: EGFR 21-22 SureKill gRNA 27+L858R gRNA; Lane 8: EGFR 21-22 SureKill gRNA 19+L858R gRNA; Lane 9: EGFR 21-22 SureKill gRNA 28 alone. On the left side of the image are markers indicating DNA size in bp. Expected dropout size of EGFR 21-22 SureKill gRNA 19+L858R gRNA: 316 bp. Expected dropout size of EGFR 21-22 SureKill gRNA 27+L858R gRNA: 417 bp. Expected dropout size of EGFR 21-22 SureKill gRNA 28+L858R gRNA: 463 bp. Dropout bands are indicated by asterisks.
# Human lung squamous cell carcinoma NCI-H1703 clone 44-25 cells were derived from NCI-H1703 cells (#CRL-5889) which were purchased from ATCC (Manassas, VA, USA). NCI-H1703 clone 44-25 cells contains R34G mutation (C 4 G) in NFE2L2 gene. […]
# as §1
substance,measurement,setting,value
"L858R gRNA: guide RNA TCAAGATCACAGATTTTGGG, SEQ ID NO:8, targets EGFR L858R mutation (listed as DNA, chemistry not given here)",exon skipping (cDNA analysis),EGFR,induced some level of exon skipping
same,large deletions (genomic DNA PCR),EGFR gene,does not induce a large deletion
